Experiments:
Type in all cases: cell-based
COLO205 (colon) = test: Inhibition of cell proliferation, CellTiter-Glo, COLO205; settings: Homo sapiens, COLO 205, 72 h
Outline: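 Exponentially growing COLO205 cells in medium with 10% FBS were plated below 2000 cells/well at 37 °C, 5% CO2. Untreated wells served as controls.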

[1] = target: T1, human IGF-1R (NIH-3T3 cells over expressing human IGF-1R) (Homo sapiens, UniProt P08069); test: IGF-1R cellular autophosphorylation (DELFIA); settings: IGF-1 stimulated
T1 construct: expressed in transfected cells; host or cells: NIH-3T3 (mouse fibroblasts)
Outline: (§1)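 Read-out: DELFIA on lysates, receptor-specific capture antibody plus europium-labelled anti-phosphotyrosine, reported as % of IGF-1- or insulin-stimulated signal. Transfected NIH-3T3 cells got compound (30 uM–1.5 nM, 2 h) before a 15 min ligand pulse: IGF-1 30 ng/mL for IGF-1R, insulin 3 ug/mL for IR.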

[2] = target: T2, IR (NIH-3T3 cells over expressing human IGF-1R or IR) (Homo sapiens, UniProt P06213); test: IR cellular autophosphorylation (DELFIA); settings: NIH-3T3 cells over expressing IR, insulin stimulated
T2 construct: expressed in transfected cells; host or cells: NIH-3T3 (mouse fibroblasts)
Outline: as §1

[3] = test system: NCI-H929 (multiple myeloma); test: Inhibition of cell proliferation, CellTiter-Glo, NCI-H929; settings: Homo sapiens, 72 h
Outline: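 Cells were grown in medium with 10% FBS at 37° C, 5% CO2. Cell number was read as CellTiter-Glo luminescence (cellular ATP), with untreated wells as control.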

T1 sequence (P08069 31-1367): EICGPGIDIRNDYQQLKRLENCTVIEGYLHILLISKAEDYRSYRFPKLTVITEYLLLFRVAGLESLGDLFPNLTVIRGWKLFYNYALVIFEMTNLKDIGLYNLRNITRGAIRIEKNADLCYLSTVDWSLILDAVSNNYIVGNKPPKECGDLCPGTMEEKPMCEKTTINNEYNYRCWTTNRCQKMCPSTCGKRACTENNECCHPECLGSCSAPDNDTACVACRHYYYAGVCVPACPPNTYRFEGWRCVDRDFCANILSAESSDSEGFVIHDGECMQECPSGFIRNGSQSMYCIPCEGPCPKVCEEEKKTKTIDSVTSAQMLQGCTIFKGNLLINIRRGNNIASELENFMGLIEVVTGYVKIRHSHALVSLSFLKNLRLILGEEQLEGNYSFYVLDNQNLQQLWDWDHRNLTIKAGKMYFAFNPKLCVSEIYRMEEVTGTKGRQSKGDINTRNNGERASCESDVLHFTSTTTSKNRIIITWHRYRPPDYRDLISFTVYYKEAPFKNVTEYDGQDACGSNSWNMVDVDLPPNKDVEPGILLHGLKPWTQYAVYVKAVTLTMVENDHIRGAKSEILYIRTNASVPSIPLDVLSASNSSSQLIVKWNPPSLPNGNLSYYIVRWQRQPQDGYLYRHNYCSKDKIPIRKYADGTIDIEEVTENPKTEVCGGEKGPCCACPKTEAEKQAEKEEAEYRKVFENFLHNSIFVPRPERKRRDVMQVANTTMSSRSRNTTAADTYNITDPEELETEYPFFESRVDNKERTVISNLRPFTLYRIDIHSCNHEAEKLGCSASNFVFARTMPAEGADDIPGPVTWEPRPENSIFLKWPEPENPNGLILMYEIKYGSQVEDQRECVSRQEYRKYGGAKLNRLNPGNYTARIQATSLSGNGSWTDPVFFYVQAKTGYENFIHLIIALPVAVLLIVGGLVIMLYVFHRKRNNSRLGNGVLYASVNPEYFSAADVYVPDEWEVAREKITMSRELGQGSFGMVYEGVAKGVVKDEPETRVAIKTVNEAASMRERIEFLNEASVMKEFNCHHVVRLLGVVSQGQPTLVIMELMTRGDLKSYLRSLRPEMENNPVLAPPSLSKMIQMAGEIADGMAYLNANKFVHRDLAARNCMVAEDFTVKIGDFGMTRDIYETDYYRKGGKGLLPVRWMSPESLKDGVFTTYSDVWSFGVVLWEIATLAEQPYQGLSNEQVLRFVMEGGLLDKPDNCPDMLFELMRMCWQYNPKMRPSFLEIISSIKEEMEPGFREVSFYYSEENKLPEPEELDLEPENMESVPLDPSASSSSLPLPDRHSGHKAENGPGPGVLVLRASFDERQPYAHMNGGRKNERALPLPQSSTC
T2 sequence (P06213 28-1382): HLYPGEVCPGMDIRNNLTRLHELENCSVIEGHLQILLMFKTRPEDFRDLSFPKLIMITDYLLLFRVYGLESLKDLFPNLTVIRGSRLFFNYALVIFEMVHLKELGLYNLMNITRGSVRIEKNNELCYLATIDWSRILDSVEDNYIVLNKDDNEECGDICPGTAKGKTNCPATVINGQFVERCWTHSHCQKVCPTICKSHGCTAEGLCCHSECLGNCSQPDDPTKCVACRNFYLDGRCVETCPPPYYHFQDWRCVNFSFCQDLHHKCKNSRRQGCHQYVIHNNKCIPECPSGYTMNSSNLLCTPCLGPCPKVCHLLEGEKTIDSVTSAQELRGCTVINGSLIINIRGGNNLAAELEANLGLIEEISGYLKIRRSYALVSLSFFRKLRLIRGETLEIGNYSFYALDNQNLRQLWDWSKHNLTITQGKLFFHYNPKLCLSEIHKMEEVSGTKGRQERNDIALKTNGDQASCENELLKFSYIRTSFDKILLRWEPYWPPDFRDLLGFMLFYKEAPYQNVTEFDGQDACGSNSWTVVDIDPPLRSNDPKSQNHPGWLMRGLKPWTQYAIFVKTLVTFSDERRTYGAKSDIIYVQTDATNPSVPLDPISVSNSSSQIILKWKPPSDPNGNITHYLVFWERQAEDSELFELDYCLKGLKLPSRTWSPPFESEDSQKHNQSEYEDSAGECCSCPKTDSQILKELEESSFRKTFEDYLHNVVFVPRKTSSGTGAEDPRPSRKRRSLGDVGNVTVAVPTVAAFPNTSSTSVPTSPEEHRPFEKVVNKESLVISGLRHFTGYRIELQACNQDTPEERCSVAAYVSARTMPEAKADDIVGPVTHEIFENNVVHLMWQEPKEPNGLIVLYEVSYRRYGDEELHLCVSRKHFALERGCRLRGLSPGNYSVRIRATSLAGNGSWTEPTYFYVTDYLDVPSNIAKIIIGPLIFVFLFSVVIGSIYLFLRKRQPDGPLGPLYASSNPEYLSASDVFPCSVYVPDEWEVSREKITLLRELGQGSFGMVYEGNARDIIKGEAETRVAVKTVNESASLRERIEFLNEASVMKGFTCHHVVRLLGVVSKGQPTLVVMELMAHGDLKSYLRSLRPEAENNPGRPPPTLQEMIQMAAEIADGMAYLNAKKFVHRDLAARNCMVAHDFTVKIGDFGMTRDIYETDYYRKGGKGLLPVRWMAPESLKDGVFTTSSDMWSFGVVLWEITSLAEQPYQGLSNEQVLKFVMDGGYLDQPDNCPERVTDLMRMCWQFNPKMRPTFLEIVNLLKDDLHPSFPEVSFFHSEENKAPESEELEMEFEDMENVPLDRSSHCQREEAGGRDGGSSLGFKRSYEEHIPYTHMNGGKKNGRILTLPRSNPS

Row | SMILES | IC50 (COLO205 (colon)) [µM] | IC50 [1] [µM] | IC50 [2] [µM] | IC50 [3] [µM]
1 | COc1ccc(-c2nc3ccccn3c2-c2ccnc(Nc3ccc(N4CCC(N5CCCCC5)CC4)c(C)c3OC)n2)cc1C(=O)Nc1c(F)cccc1F [Example 55, 5-[3-(2-{[4-(1,4′-bipiperidin-1′-yl)-3-methyl-2-(methyloxy)phenyl]amino}-4-pyrimidinyl)imidazo[1,2-a]pyridin-2-yl]-N-(2,6-difluorophenyl)-2-(methyloxy)benzamide] | > 1 | 0.1 to 0.5 | > 0.5 | > 1
2 | COc1cc(N2CCC(N3CCN(CCF)CC3)CC2)ccc1Nc1nccc(-c2c(-c3ccc(OC)c(C(=O)Nc4c(F)cccc4F)c3)nc3cc(F)ccn23)n1 [Example 197, N-(2,6-difluorophenyl)-5-[7-fluoro-3-(2-{[4-{4-[4-(2-fluoroethyl)-1-piperazinyl]-1-piperidinyl]-2-(methyloxy)phenyl]amino}-4-pyrimidinyl)imidazo[1,2-a]pyridin-2-yl]-2-(methyloxy)benzamide] | 0.25 to 1 | < 0.1 | < 0.1 | < 0.25
3 | COc1cc(N2CCN3CCOC[C@@H]3C2)ccc1Nc1nccc(-c2c(-c3ccc(OC)c(C(=O)Nc4c(F)cccc4F)c3)nc3ccccn23)n1 [Example 124, N-(2,6-difluorophenyl)-5-[3-(2-{[4-[(9aS)-hexahydropyrazino[2,1-c][1,4]oxazin-8(1H)-yl]-2-(methyloxy)phenyl]amino}-4-pyrimidinyl)imidazo[1,2-a]pyridin-2-yl]-2-(methyloxy)-benzamide] | > 1 | < 0.1 | < 0.1 | < 0.25
4 | COc1cc(N2CCC(N3CCC(F)CC3)CC2)ccc1Nc1nccc(-c2c(-c3cccc(C(=O)Nc4c(F)cccc4F)c3)nc3ccccn23)n1 [Example 51, N-(2,6-difluorophenyl)-3-[3-(2-{[4-(4-fluoro-1,4′-bipiperidin-1′-yl)-2-(methyloxy)phenyl]amino}-4-pyrimidinyl)imidazo[1,2-a]pyridin-2-yl]benzamide] | 0.25 to 1 | < 0.1 | 0.1 to 0.5 | 0.25 to 1
5 | COc1cc(N2CCC(N3CCN(CCS(C)(=O)=O)CC3)CC2)ccc1Nc1nccc(-c2c(-c3cccc(C(=O)Nc4c(F)cccc4F)c3)nc3c(C)cccn23)n1 [Example 67, N-(2,6-difluorophenyl)-3-[8-methyl-3-(2-{[2-(methyloxy)-4-(4-{4-[2-(methylsulfonyl)ethyl)-1-piperazinyl}-1-piperidinyl)phenyl]amino]-4-pyrimidinyl)imidazo[1,2-a]pyridin-2-yl]benzamide] | 0.25 to 1 | < 0.1 | 0.1 to 0.5 | 0.25 to 1
6 | COc1cc(N2CCC(C3CCN(CCF)CC3)CC2)ccc1Nc1nccc(-c2c(-c3cccc(C(=O)Nc4c(F)cccc4F)c3)nc3ccccn23)n1 [Example 95, N-(2,6-difluorophenyl)-3-[3-(2-{[4-[1′-(2-fluoroethyl)-4,4′-bipiperidin-1-yl]-2-(methyloxy)phenyl]amino}-4-pyrimidinyl)imidazo[1,2-a]pyridin-2-yl]benzamide] | > 1 | < 0.1 | 0.1 to 0.5 | 0.25 to 1
7 | COc1cc(N2CCN3CCOC[C@@H]3C2)ccc1Nc1nccc(-c2c(-c3cccc(C(=O)Nc4c(F)cccc4F)c3)nc3ccccn23)n1 [Example 123] | 0.25 to 1 | 0.1 to 0.5 | < 0.1 | 0.25 to 1
8 | COc1cc(N2CCC(N3CCN(CCF)C(=O)C3)CC2)ccc1Nc1nccc(-c2c(-c3cccc(C(=O)Nc4c(F)cccc4F)c3)nc3ccccn23)n1 [Example 121, N-(2,6-difluorophenyl)-3-[3-(2-{[4-{4-[4-(2-fluoroethyl)-3-oxo-1-piperazinyl]-1-piperidinyl}-2-(methyloxy)phenyl]amino]-4-pyrimidinyl)imidazo[1,2-a]pyridin-2-yl]benzamide] | 0.25 to 1 | < 0.1 | < 0.1 | < 0.25
9 | CCOc1cc(N2CCC(N3CCN(CCF)CC3)CC2)ccc1Nc1nccc(-c2c(-c3cccc(C(=O)Nc4c(F)cccc4F)c3)nc3ccccn23)n1 [Example 116, N-(2,6-difluorophenyl)-3-(3-{2-[(2-(ethyloxy)-4-{4-[4-(2-fluoroethyl)-1-piperazinyl]-1-piperidinyl}phenyl)amino]-4-pyrimidinyl}imidazo[1,2-a]pyridin-2-yl)benzamide] | 0.25 to 1 | < 0.1 | < 0.1 | 0.25 to 1

More lines, now with the values ahead:

Row | IC50 (COLO205 (colon)) [µM] | IC50 [1] [µM] | IC50 [2] [µM] | IC50 [3] [µM] | SMILES
10 | < 0.25 | < 0.1 | < 0.1 | < 0.25 | COc1cc(N2CCN(CCS(C)(=O)=O)CC2)c(Cl)cc1Nc1nccc(-c2c(-c3ccc(OC)c(C(=O)Nc4c(F)cccc4F)c3)nc3ccccn23)n1 [Example 213, 5-(3-{2-[(5-chloro-2-(methyloxy)-4-{4-[2-(methylsulfonyl)ethyl]-1-piperazinyl}phenyl)amino]-4-pyrimidinyl}imidazo[1,2-a]pyridin-2-yl)-N-(2,6-difluorophenyl)-2-(methyloxy)benzamide]
11 | 0.25 to 1 | < 0.1 | < 0.1 | < 0.25 | CCCN1CCC(c2ccc(Nc3nccc(-c4c(-c5cccc(C(=O)Nc6c(F)cccc6F)c5)nc5ccccn45)n3)c(OC)c2)CC1 [Example 138, N-(2,6-difluorophenyl)-3-[3-(2-{[2-(methyloxy)-4-(1-propyl-4-piperidinyl)phenyl]amino}-4-pyrimidinyl)imidazo[1,2-a]pyridin-2-yl]benzamide]
12 | 0.25 to 1 | < 0.1 | < 0.1 | 0.25 to 1 | CCCN1CCN(c2ccc(Nc3nccc(-c4c(-c5cccc(C(=O)Nc6c(F)cccc6F)c5)nc5ccccn45)n3)c(OC)c2)CC1 [Example 173, N-(2,6-difluorophenyl)-3-[3-(2-{[2-(methyloxy)-4-(4-propyl-1-piperazinyl)phenyl]amino}-4-pyrimidinyl)imidazo[1,2-a]pyridin-2-yl]benzamide]
13 | 0.25 to 1 | < 0.1 | < 0.1 | < 0.25 | COc1cc(N2CCN(S(C)(=O)=O)CC2)ccc1Nc1nccc(-c2c(-c3ccc(OC)c(C(=O)Nc4c(F)cccc4F)c3)nc3ccccn23)n1 [Example 233, N-(2,6-difluorophenyl)-2-(methyloxy)-5-{3-[2-({2-(methyloxy)-4-[4-(methylsulfonyl)-1-piperazinyl]phenyl}amino)-4-pyrimidinyl]imidazo[1,2-a]pyridin-2-yl}benzamide]
14 | < 0.25 | < 0.1 | < 0.1 | < 0.25 | CCOc1ccc(-c2nc3ccccn3c2-c2ccnc(Nc3ccc(N4CCC(N5CCN(S(C)(=O)=O)CC5)CC4)cc3OC)n2)cc1C(=O)Nc1c(F)cccc1F [Example 228, N-(2,6-difluorophenyl)-2-(ethyloxy)-5-(3-{2-[(2-(methyloxy)-4-{4-[4-(methylsulfonyl)-1-piperazinyl]-1-piperidinyl}phenyl)amino]-4-pyrimidinyl}imidazo[1,2-a]pyridin-2-yl)benzamide]
15 | 0.25 to 1 | < 0.1 | < 0.1 | 0.25 to 1 | COc1cc(N2CCC(N3CCCCC3)CC2)ccc1Nc1nccc(-c2c(-c3cccc(C(=O)Nc4c(F)cccc4F)c3)nc3cc(F)ccn23)n1 [Example 195, 3-[3-(2-{[4-(1,4′-bipiperidin-1′-yl)-2-(methyloxy)phenyl]amino}-4-pyrimidinyl)-7-fluoroimidazo[1,2-a]pyridin-2-yl]-N-(2,6-difluorophenyl)benzamide]
16 | 0.25 to 1 | < 0.1 | < 0.1 | < 0.25 | COc1cc(N2CCN(CCS(C)(=O)=O)[C@@H](C(C)C)C2)ccc1Nc1nccc(-c2c(-c3ccc(OC)c(C(=O)Nc4c(F)cccc4F)c3)nc3ccccn23)n1 [Example 250, N-(2,6-difluorophenyl)-5-[3-(2-{[4-{(3S)-3-(1-methylethyl)-4-[2-(methylsulfonyl)ethyl]-1-piperazinyl}-2-(methyloxy)phenyl]amino}-4-pyrimidinyl)imidazo[1,2-a]pyridin-2-yl]-2-(methyloxy)benzamide]
17 | < 0.25 | < 0.1 | < 0.1 | < 0.25 | CCOc1ccc(-c2nc3ccccn3c2-c2ccnc(Nc3ccc(N4CCC(CCS(C)(=O)=O)CC4)cc3OC)n2)cc1C(=O)Nc1c(F)cccc1F [Example 200, N-(2,6-difluorophenyl)-2-(ethyloxy)-5-(3-{2-[(2-(methyloxy)-4-{4-[2-(methylsulfonyl)ethyl]-1-piperidinyl}phenyl)amino]-4-pyrimidinyl}imidazo[1,2-a]pyridin-2-yl)benzamide]
18 | 0.25 to 1 | < 0.1 | < 0.1 | < 0.25 | CCOc1cc(N2CCN(CCS(C)(=O)=O)CC2)ccc1Nc1nccc(-c2c(-c3ccc(OC)c(C(=O)Nc4c(F)cccc4F)c3)nc3ccccn23)n1 [Example 143, N-(2,6-difluorophenyl)-5-(3-{2-[(2-(ethyloxy)-4-{4-[2-(methylsulfonyl)ethyl)-1-piperazinyl}phenyl)amino]-4-pyrimidinyl}imidazo[1,2-a]pyridin-2-yl)-2-(methyloxy)benzamide]

Source: US20100216779A1 (GLAXOSMITHKLINE LLC, priority 2007, published 2010)
